In ChEMBL document CHEMBL5244219, “Recent developments of quinolone-based derivatives and their activities against Escherichia coli” (Eur J Med Chem, 2018):
Values after ≈ are worked out from the molar mass of the structure shown.

Key:
Format in all cases: functional
[1] = test system: Escherichia coli; test: Antibacterial activity against Escherichia coli assessed as bacterial growth inhibition measured after 24 hrs by broth micro dilution method
[2] = test system: Escherichia coli; test: Antibacterial activity against Escherichia coli MTCC 739 assessed as bacterial growth inhibition incubated for 24 hrs by spectrophotometric method
[3] = test system: Escherichia coli; test: Antibacterial activity against Escherichia coli NIHJ JC-2 assessed as bacterial growth inhibition measured after 24 hrs by agar dilution method
[4] = test system: Escherichia coli; test: Antibacterial activity against Escherichia coli NIHJ assessed as bacterial growth inhibition measured after 24 hrs by agar dilution method
[5] = test system: Escherichia coli; test: Antibacterial activity against Escherichia coli 2010-05 assessed as bacterial growth inhibition measured after 24 hrs by agar dilution method
[6] = test system: Escherichia coli; test: Antibacterial activity against Escherichia coli 2010-29 assessed as bacterial growth inhibition measured after 24 hrs by agar dilution method
[7] = test system: Escherichia coli; test: Antibacterial activity against Escherichia coli KC-14 infected in po dosed mouse assessed as bacterial growth inhibition; conditions: Escherichia coli
[8] = test system: Escherichia coli; test: Antibacterial activity against Escherichia coli assessed as zone of inhibition at 500 to 1000 ug per disc; conditions: dose 500-1000 µg
[9] = test system: Escherichia coli; test: Antibacterial activity against Escherichia coli assessed as bacterial growth inhibition incubated for 24 hrs by agar streak dilution method
[10] = test system: Escherichia coli; test: Antibacterial activity against Escherichia coli ATCC 8739 assessed as bacterial growth inhibition incubated for 24 hrs by two-serial dilution method
[11] = test system: Escherichia coli; test: Antibacterial activity against Escherichia coli assessed as bacterial growth inhibition incubated for 18 hrs by twofold serial dilution assay

CCn1cc(C(=O)O)c(=O)c2cc(F)c(-n3cc(CO[C@H]4O[C@H](COC(C)=O)[C@@H](OC(C)=O)[C@H](OC(C)=O)[C@H]4OC(C)=O)nn3)c(F)c21
MIC [1]: > 6.25 mg/L

CCn1cc(C(=O)O)c(=O)c2cc(F)c(-n3cc(CO[C@H]4O[C@H](COC(C)=O)[C@@H](OC(C)=O)[C@H](OC(C)=O)[C@H]4NC(C)=O)nn3)c(F)c21
MIC [1]: > 6.25 mg/L

CCn1cc(C(=O)O)c(=O)c2cc(F)c(-n3cc(CO[C@H]4O[C@@H](C)[C@H](OC(C)=O)[C@@H](OC(C)=O)[C@H]4OC(C)=O)nn3)c(F)c21
MIC [1]: > 6.25 mg/L

CCn1cc(C(=O)O)c(=O)c2cc(F)c(-n3cc(CO[C@H]4OC[C@@H](OC(C)=O)[C@@H](OC(C)=O)[C@H]4OC(C)=O)nn3)c(F)c21
MIC [1]: > 6.25 mg/L

CCn1cc(C(=O)O)c(=O)c2cc(F)c(-n3cc(CO[C@H]4O[C@H](COC(C)=O)[C@@H](OC(C)=O)[C@H](OC(C)=O)[C@@H]4OC(C)=O)nn3)c(F)c21
MIC [1]: > 6.25 mg/L

CCn1cc(C(=O)O)c(=O)c2cc(F)c(-n3cc(CO[C@H]4O[C@H](COC(C)=O)[C@H](OC(C)=O)[C@H](OC(C)=O)[C@H]4OC(C)=O)nn3)c(F)c21
MIC [1]: > 6.25 mg/L

CCn1cc(C(=O)O)c(=O)c2cc(F)c(-n3cc(CO[C@H]4OC[C@@H](OC(C)=O)[C@@H](OC(C)=O)[C@@H]4OC(C)=O)nn3)c(F)c21
MIC [1]: > 6.25 mg/L

CCn1cc(C(=O)O)c(=O)c2cc(F)c(-n3cc(CO[C@H]4OC[C@@H](OC(C)=O)[C@H](OC(C)=O)[C@H]4OC(C)=O)nn3)c(F)c21
MIC [1]: > 6.25 mg/L

COc1ccc(N2CCN(Cn3nc(COc4cc(=O)n(C)c5ccccc45)sc3=S)CC2)cc1
MIC [2]: 25 mg/L (≈ 49.1 µM)

CC1(N)CN(c2c(F)cc3c(=O)c(C(=O)O)cn(-c4cc(N)c(F)cc4CO)c3c2Cl)C1
MIC [3]: 0.008 mg/L (≈ 0.0172 µM) | MIC [4]: 0.008 mg/L (≈ 0.0172 µM) | MIC [5]: 1 mg/L (≈ 2.15 µM) | MIC [6]: 1 mg/L (≈ 2.15 µM)

CCOC(=O)c1c2n(c3cc(N4CCNCC4)c(F)cc3c1=O)C(C)S2 (stereo unspecified)
ED50 ([7]; KC-14, read-out: ED50): 0.78 mg/kg

O=c1[nH]c2ccc(Cl)cc2c2c1cnn2Cc1ccccc1
diameter of the inhibition zone (DIZ) [8]: 7 mm

COc1ccc2nc(N3C(=O)CSC3N3CCN(c4cc5c(cc4F)c(=O)c(C(=O)O)cn5C4CC4)CC3)sc2c1 (stereo unspecified)
MIC [9]: 2 mg/L (≈ 3.36 µM)

O=c1[nH]c2ccc(F)cc2c2c1cnn2Cc1ccccc1
diameter of the inhibition zone (DIZ) [8]: 7 mm

CNC1CN(c2c(F)cc3c(=O)c(C(=O)O)cn(-c4cc(N)c(F)cc4CO)c3c2Cl)C1
MIC [3]: 0.008 mg/L (≈ 0.0172 µM) | MIC [4]: 0.008 mg/L (≈ 0.0172 µM) | MIC [5]: 2 mg/L (≈ 4.3 µM) | MIC [6]: 2 mg/L (≈ 4.3 µM)

O=C(O)c1cn(C2CC2)c2c(cc(F)c3nc(-c4ccco4)[nH]c32)c1=O
MIC [10]: > 3 mg/L

Cn1c(=O)cc(OCc2nn(CN3CCN(c4ccc(C(F)(F)F)cc4)CC3)c(=S)s2)c2ccccc21
MIC [2]: 25 mg/L (≈ 45.7 µM)

Nc1cc(-n2cc(C(=O)O)c(=O)c3cc(F)c(N4CC(O)C4)c(Cl)c32)c(CO)cc1F
MIC [3]: 0.008 mg/L (≈ 0.0177 µM) | MIC [4]: 0.008 mg/L (≈ 0.0177 µM) | MIC [5]: 1 mg/L (≈ 2.21 µM) | MIC [6]: 1 mg/L (≈ 2.21 µM)

O=C(O)c1cn(C2CC2)c2c(cc(F)c3nc(-c4ccsc4)[nH]c32)c1=O
MIC [10]: > 3 mg/L

CCNC1CN(c2c(F)cc3c(=O)c(C(=O)O)cn(-c4cc(N)c(F)cc4CO)c3c2Cl)C1
MIC [3]: 0.008 mg/L (≈ 0.0167 µM) | MIC [4]: 0.008 mg/L (≈ 0.0167 µM) | MIC [5]: 1 mg/L (≈ 2.09 µM) | MIC [6]: 1 mg/L (≈ 2.09 µM)

CCOc1ccc2nc(N3C(=O)CSC3N3CCN(c4cc5c(cc4F)c(=O)c(C(=O)O)cn5C4CC4)CC3)sc2c1 (stereo unspecified)
MIC [9]: 2 mg/L (≈ 3.28 µM)

CNC1(C)CN(c2c(F)cc3c(=O)c(C(=O)O)cn(-c4cc(N)c(F)cc4CO)c3c2Cl)C1
MIC [3]: 0.008 mg/L (≈ 0.0167 µM) | MIC [4]: 0.008 mg/L (≈ 0.0167 µM) | MIC [5]: 1 mg/L (≈ 2.09 µM) | MIC [6]: 1 mg/L (≈ 2.09 µM)

Cn1c(=O)cc(OCc2nn(CN3CCN(c4ccc(F)cc4)CC3)c(=S)o2)c2ccccc21
MIC [2]: 25 mg/L (≈ 51.9 µM)

Cn1c(=O)c(C(=O)/C=C/c2ccco2)c(O)c2ccccc21
diameter of the inhibition zone (DIZ) [8]: 7 mm

CNC1CN(c2c(F)c(C)c3c(=O)c(C(=O)O)cn(-c4cc(N)c(F)cc4CO)c3c2Cl)C1
MIC [3]: 0.008 mg/L (≈ 0.0167 µM) | MIC [4]: 0.008 mg/L (≈ 0.0167 µM) | MIC [5]: 1 mg/L (≈ 2.09 µM) | MIC [6]: 1 mg/L (≈ 2.09 µM)

Nc1cc(-n2cc(C(=O)O)c(=O)c3cc(F)c(N4CC(N)C4)c(Cl)c32)c(CO)cc1F
MIC [3]: 0.008 mg/L (≈ 0.0177 µM) | MIC [4]: 0.008 mg/L (≈ 0.0177 µM) | MIC [5]: 1 mg/L (≈ 2.22 µM) | MIC [6]: 1 mg/L (≈ 2.22 µM)

CCn1c(=O)c(C(=O)/C=C/c2cccs2)c(O)c2ccccc21
diameter of the inhibition zone (DIZ) [8]: 7 mm

CCn1cc(C(=O)O)c(=O)c2cc(F)c(N3CCN(C4SCC(=O)N4c4nc5ccc(F)cc5s4)CC3)cc21 (stereo unspecified)
MIC [9]: 2 mg/L (≈ 3.5 µM)

Cn1c(=O)cc(OCc2nn(CN3CCN(c4ccc(F)cc4)CC3)c(=S)s2)c2ccccc21
MIC [2]: 25 mg/L (≈ 50.2 µM)

CCn1cc(C(=O)O)c(=O)c2cc(F)c(N3CCN(C4SCC(=O)N4c4nc5ccc(Br)cc5s4)CC3)cc21 (stereo unspecified)
MIC [9]: 2 mg/L (≈ 3.16 µM)

O=C(O)c1cn(C2CC2)c2c(cc(F)c3nc(-c4ccccn4)[nH]c32)c1=O
MIC [10]: > 3 mg/L

O=c1[nH]c2ccccc2c2c1cnn2Cc1ccccc1
diameter of the inhibition zone (DIZ) [8]: 7 mm

CC(=O)Nc1ccc2nc(N3C(=O)CSC3N3CCN(c4cc5c(cc4F)c(=O)c(C(=O)O)cn5C4CC4)CC3)sc2c1 (stereo unspecified)
MIC [9]: 2 mg/L (≈ 3.21 µM)

O=C(O)c1cn(C2CC2)c2c(cc(F)c3nc(-c4cccs4)[nH]c32)c1=O
MIC [10]: > 3 mg/L

Cn1c(=O)cc(OCc2nn(CN3CCN(c4cccc(C(F)(F)F)c4)CC3)c(=S)s2)c2ccccc21
MIC [2]: 25 mg/L (≈ 45.7 µM)

O=C(O)c1cn(C2CC2)c2cc(N3CCN(C4SCC(=O)N4c4nc5ccc(F)cc5s4)CC3)c(F)cc2c1=O (stereo unspecified)
MIC [9]: 2 mg/L (≈ 3.43 µM)

CCn1cc(C(=O)O)c(=O)c2cc(F)c(N3CCN(C4SCC(=O)N4c4nc5ccc(C#N)cc5s4)CC3)cc21 (stereo unspecified)
MIC [9]: 2 mg/L (≈ 3.46 µM)

CNC1CN(c2c(F)c(N)c3c(=O)c(C(=O)O)cn(-c4cc(N)c(F)cc4CO)c3c2Cl)C1
MIC [3]: 0.008 mg/L (≈ 0.0167 µM) | MIC [4]: 0.008 mg/L (≈ 0.0167 µM) | MIC [5]: 1 mg/L (≈ 2.08 µM) | MIC [6]: 1 mg/L (≈ 2.08 µM)

CCn1c(=O)c(C(=O)/C=C/c2ccsc2)c(O)c2ccccc21
diameter of the inhibition zone (DIZ) [8]: 7 mm

O=C(O)c1cn(C2CC2)c2c(cc(F)c3nc(-c4ccc(F)cc4)[nH]c32)c1=O
MIC [10]: > 3 mg/L

CCn1cc(C(=O)O)c(=O)c2cc(F)c(N3CCN(C4SCC(=O)N4c4nc5ccc(NC(C)=O)cc5s4)CC3)cc21 (stereo unspecified)
MIC [9]: 2 mg/L (≈ 3.27 µM)

O=C(O)c1cn(C2CC2)c2c(cc(F)c3nc(-c4ccoc4)[nH]c32)c1=O
MIC [10]: > 3 mg/L

Cn1c(=O)cc(OCc2nn(CN3CCN(c4ccc(C(F)(F)F)cc4)CC3)c(=S)o2)c2ccccc21
MIC [2]: 25 mg/L (≈ 47 µM)

CCn1cc(C(=O)O)c(=O)c2cc(F)c(N3CCN(C4SCC(=O)N4c4nc5ccc(OC)cc5s4)CC3)cc21 (stereo unspecified)
MIC [9]: 2 mg/L (≈ 3.43 µM)

CCn1cc(C(=O)O)c(=O)c2cc(F)c(N3CCN(C4SCC(=O)N4c4nc5ccc([N+](=O)[O-])cc5s4)CC3)cc21 (stereo unspecified)
MIC [9]: 2 mg/L (≈ 3.34 µM)

CCOC(=O)c1c2n(c3cc(N4CCN(C(C)=O)CC4)c(F)cc3c1=O)C(C)S2 (stereo unspecified)
ED50 ([7]; KC-14, po, read-out: ED50): 0.89 mg/kg

N#Cc1ccc2nc(N3C(=O)CSC3N3CCN(c4cc5c(cc4F)c(=O)c(C(=O)O)cn5C4CC4)CC3)sc2c1 (stereo unspecified)
MIC [9]: 2 mg/L (≈ 3.39 µM)

COc1ccc(N2CCN(Cn3nc(COc4cc(=O)n(C)c5ccccc45)oc3=S)CC2)cc1
MIC [2]: 25 mg/L (≈ 50.6 µM)

Cn1c(=O)cc(OCc2nn(CN3CCN(c4cccc(C(F)(F)F)c4)CC3)c(=S)o2)c2ccccc21
MIC [2]: 25 mg/L (≈ 47 µM)

O=C(O)c1cn(C2CC2)c2c(cc(F)c3nc(-c4ccncc4)[nH]c32)c1=O
MIC [10]: > 3 mg/L

O=C(O)c1cn(C2CC2)c2c(cc(F)c3nc(-c4ccccc4)[nH]c32)c1=O
MIC [10]: > 3 mg/L

CCOc1ccc2nc(N3C(=O)CSC3N3CCN(c4cc5c(cc4F)c(=O)c(C(=O)O)cn5CC)CC3)sc2c1 (stereo unspecified)
MIC [9]: 2 mg/L (≈ 3.35 µM)

O=C(O)c1cn(C2CC2)c2c(cc(F)c3nc[nH]c32)c1=O
MIC [10]: > 3 mg/L

Cc1ccc(-c2nc3c(F)cc4c(=O)c(C(=O)O)cn(C5CC5)c4c3[nH]2)cc1
MIC [10]: > 3 mg/L

COc1ccc2[nH]c(=O)c3cnn(Cc4ccccc4)c3c2c1
diameter of the inhibition zone (DIZ) [8]: 7 mm

Cc1ccc2[nH]c(=O)c3cnn(Cc4ccccc4)c3c2c1
diameter of the inhibition zone (DIZ) [8]: 7 mm

Cn1c(=O)cc(OCc2nn(CN3CCN(c4ccccc4F)CC3)c(=S)s2)c2ccccc21
MIC [2]: 25 mg/L (≈ 50.2 µM)

O=C(O)c1cn(C2CC2)c2cc(N3CCN(C4SCC(=O)N4c4nc5ccc([N+](=O)[O-])cc5s4)CC3)c(F)cc2c1=O (stereo unspecified)
MIC [9]: 2 mg/L (≈ 3.28 µM)

O=C(O)c1cn(C2CC2)c2cc(N3CCN(C4SCC(=O)N4c4nc5ccc(Br)cc5s4)CC3)c(F)cc2c1=O (stereo unspecified)
MIC [9]: 2 mg/L (≈ 3.1 µM)

Cn1c(=O)cc(OCc2nn(CN3CCN(c4ccccc4F)CC3)c(=S)o2)c2ccccc21
MIC [2]: 25 mg/L (≈ 51.9 µM)

O=C(O)c1cn(C2CC2)c2c(cc(F)c3nc(-c4ccc(Cl)cc4)[nH]c32)c1=O
MIC [10]: > 3 mg/L

CCn1cc(C(=O)O)c(=O)c2cc(F)c(N3CCNCC3)nc21 [ENOXACIN]
MIC [11]: 0.13 mg/L (≈ 0.406 µM)
